Measurements as given in US12187699B2, “GSPT1 compounds and methods of use of the novel compounds” (BRISTOL-MYERS SQUIBB COMPANY, priority 2022, dated 2025).

Target: T1, ePL-tagged GSPT1 (Homo sapiens, UniProt P15170+Q96SW2)
T1 construct: expressed in transfected cells; host or cells: DF15 multiple myeloma cells
Assay: GSPT1 DiscoverX Degradation Assay
Type: cell-based
Details: DF15 multiple myeloma cells expressing ePL-tagged GSPT1; twenty hours; minimum of percent of control curve (Ataluren control Y constant=0, DMSO control = Y max)
Method: GSPT1 DiscoverX Degradation Assay.
Compounds were dispensed by an acoustic dispenser (ATS Acoustic Transfer System from EDC Biosystems) into a 384-well in a 10 pt dose response curve using 3 fold dilutions starting at 10 uM and going down to 0.0005 uM in DMSO. A DMSO control is added to the assay. […] Assay plates were incubated at 37° C. with 5% CO2 for twenty hours. After incubation, 25 μl of the InCELL Hunter™ Detection Reagent Working Solution (DiscoverX, cat #96-0002, Fremont, CA) was added to each well and incubated at room temperature for 30 minutes protected from light. After 30 minutes, luminescence was read on a PHERAstar luminometer (Cary, NC).
The minimum Y is reference to the Y constant. In the GSPT1 degradation assay, we use Ataluren® (luciferase inhibitor) as the control with a Y constant=0. The maximum limit is the Y max DMSO control. All percent of control GSPT1 degradation curves were processed and evaluated using Activity Base (IDBS).

T1 sequence (P15170 whole entry): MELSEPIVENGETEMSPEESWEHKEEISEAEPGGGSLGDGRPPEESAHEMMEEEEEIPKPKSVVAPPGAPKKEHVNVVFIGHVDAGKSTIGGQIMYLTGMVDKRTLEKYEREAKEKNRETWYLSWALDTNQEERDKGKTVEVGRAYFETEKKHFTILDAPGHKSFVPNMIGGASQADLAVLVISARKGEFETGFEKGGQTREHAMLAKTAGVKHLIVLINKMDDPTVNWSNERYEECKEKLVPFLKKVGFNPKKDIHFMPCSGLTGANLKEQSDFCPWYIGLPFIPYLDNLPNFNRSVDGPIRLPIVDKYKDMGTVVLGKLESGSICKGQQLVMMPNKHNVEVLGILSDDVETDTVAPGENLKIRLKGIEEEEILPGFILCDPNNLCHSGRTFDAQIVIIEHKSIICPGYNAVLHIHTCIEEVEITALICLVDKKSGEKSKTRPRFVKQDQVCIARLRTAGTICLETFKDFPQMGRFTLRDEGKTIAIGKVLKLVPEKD
T1 sequence (Q96SW2 whole entry): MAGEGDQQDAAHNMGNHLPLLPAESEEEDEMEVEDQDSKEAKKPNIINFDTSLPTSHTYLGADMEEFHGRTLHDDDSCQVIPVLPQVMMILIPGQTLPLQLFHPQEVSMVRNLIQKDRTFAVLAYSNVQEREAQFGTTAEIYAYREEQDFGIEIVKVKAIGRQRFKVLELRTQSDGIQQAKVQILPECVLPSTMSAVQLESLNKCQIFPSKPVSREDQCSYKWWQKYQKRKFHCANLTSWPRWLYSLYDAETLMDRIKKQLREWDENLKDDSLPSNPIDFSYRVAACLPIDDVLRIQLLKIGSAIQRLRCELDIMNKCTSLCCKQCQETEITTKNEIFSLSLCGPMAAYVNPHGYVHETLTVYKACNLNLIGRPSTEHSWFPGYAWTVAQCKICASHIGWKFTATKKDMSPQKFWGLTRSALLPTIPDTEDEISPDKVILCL
T1 sequence (Q16531 whole entry partner): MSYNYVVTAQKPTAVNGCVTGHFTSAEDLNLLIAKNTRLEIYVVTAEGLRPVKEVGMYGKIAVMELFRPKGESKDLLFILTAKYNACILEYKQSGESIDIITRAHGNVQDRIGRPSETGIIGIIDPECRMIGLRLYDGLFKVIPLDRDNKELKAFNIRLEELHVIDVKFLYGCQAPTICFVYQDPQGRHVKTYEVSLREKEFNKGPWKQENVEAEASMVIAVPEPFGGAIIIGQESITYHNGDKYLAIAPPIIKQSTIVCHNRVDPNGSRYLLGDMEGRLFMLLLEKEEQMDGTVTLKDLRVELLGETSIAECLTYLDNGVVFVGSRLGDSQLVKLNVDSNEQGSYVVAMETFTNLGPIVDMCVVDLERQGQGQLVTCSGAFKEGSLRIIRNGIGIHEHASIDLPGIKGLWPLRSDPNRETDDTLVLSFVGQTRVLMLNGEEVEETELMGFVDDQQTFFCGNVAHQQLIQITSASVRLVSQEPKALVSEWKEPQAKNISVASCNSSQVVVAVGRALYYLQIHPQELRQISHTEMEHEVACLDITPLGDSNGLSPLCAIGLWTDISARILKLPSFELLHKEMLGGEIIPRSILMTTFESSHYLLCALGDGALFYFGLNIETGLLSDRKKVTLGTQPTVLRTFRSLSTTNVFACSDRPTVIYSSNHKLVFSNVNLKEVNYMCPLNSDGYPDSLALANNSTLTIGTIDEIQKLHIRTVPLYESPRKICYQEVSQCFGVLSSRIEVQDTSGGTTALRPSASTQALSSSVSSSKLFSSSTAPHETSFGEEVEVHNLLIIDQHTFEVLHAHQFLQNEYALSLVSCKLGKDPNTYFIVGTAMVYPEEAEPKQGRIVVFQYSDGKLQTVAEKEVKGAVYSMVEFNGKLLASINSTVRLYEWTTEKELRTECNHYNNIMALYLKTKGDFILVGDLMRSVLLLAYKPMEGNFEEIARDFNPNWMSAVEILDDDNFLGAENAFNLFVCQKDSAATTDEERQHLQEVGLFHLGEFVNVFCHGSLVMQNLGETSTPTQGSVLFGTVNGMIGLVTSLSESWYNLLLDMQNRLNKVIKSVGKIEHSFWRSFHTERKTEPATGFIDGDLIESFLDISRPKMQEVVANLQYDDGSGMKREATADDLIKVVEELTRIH

SMILES	GSPT1 Degradation Ymin
Nc1ccccc1COc1ccc(NC(=O)NCc2ccc3c(c2)CN(C2CCC(=O)NC2=O)C3=O)cc1 (centres unmarked) [Example 28, 1-(4-((2-aminobenzyl)oxy)phenyl)-3-((2-(2,6-dioxopiperidin-3-yl)-1-oxoisoindolin-5-yl)methyl)urea]	10.20
NCc1ccc(COc2ccc(NC(=O)NCc3ccc4c(c3)CN(C3CCC(=O)NC3=O)C4=O)cc2Cl)cc1 (centres unmarked) [Example 29, 1-(4-((4-(aminomethyl)benzyl)oxy)-3-chlorophenyl)-3-((2-(2,6-dioxopiperidin-3-yl)-1-oxoisoindolin-5-yl)methyl)urea]	16.88
CC(C)c1cc(CN)ccc1COc1ccc(NC(=O)NCc2ccc3c(c2)CN(C2CCC(=O)NC2=O)C3=O)cc1 (centres unmarked) [Example 30, 1-(4-{[4-(aminomethyl)-2-i-propylphenyl]methoxy}phenyl)-3-{[2-(2,6-dioxopiperidin-3-yl)-1-oxo-2,3-dihydro-1H-isoindol-5-yl]methyl}urea]	10.86
NCc1ccc(COc2ccc(NC(=O)NCc3ccc4c(c3)CN(C3CCC(=O)NC3=O)C4=O)cc2)c(OC(F)F)c1 (centres unmarked) [Example 31, 1-(4-{[4-(aminomethyl)-2-diflouromethoxyphenyl]methoxy}phenyl)-3-{[2-(2,6-dioxopiperidin-3-yl)-1-oxo-2,3-dihydro-1H-isoindol-5-yl]methyl}urea]	7.07
C[C@]1(N2Cc3cc(CNC(=O)Nc4ccc(OCc5ccc(CN)cc5)cc4)ccc3C2=O)CCC(=O)NC1=O [Example 32, 1-(4-{[4-(aminomethyl)phenyl]methoxy}phenyl)-3-({2-[(3S)-3-methyl-2,6-dioxopiperidin-3-yl]-1-oxo-2,3-dihydro-1H-isoindol-5-yl}methyl)urea]	22.76

Next, values leading:

GSPT1 Degradation Ymin	SMILES
60.95	C[C@@]1(N2Cc3cc(CNC(=O)Nc4ccc(OCc5ccc(CN)cc5)cc4)ccc3C2=O)CCC(=O)NC1=O [Example 33, 1-(4-{[4-(aminomethyl)phenyl]methoxy}phenyl)-3-({2-[(3R)-3-methyl-2,6-dioxopiperidin-3-yl]-1-oxo-2,3-dihydro-1H-isoindol-5-yl}methyl)urea]
7.47	NC[C@H]1CC[C@H](COc2ccc(NC(=O)NCc3ccc4c(c3)CN(C3CCC(=O)NC3=O)C4=O)cc2)CC1 (some centres unmarked) [Example 34, 3-{[2-(2,6-dioxopiperidin-3-yl)-1-oxo-2,3-dihydro-1H-isoindol-5-yl]methyl}-1-(4-{[(1r,4r)-4-(aminomethyl)cyclohexyl]methoxy}phenyl)urea]
17.59	NCc1ccc(CO[C@H]2CC[C@H](NC(=O)NCc3ccc4c(c3)CN(C3CCC(=O)NC3=O)C4=O)CC2)cc1 (some centres unmarked) [Example 35, 3-{[2-(2,6-dioxopiperidin-3-yl)-1-oxo-2,3-dihydro-1H-isoindol-5-yl]methyl}-1-[(1r,4r)-4-{[4-(aminomethyl)phenyl]methoxy}cyclohexyl]urea]
